Series [1] concerns P. falciparum male gametocytes. In words: P. falciparum Dual Gamete Formation Assay (PfDGFA), male readout (exflagellation). The conditions noted are these: for Selectivity Ratio M: HepG2 Tox50 versus male IC50; for Average inhibition male (%) / % inhibition male (individual replicates) R1 / % inhibition male (individual replicates) R3 / % inhibition male (individual replicates) R4 / inhibition at 2 µM: 24h preincubation with gametocytes; for IC50: PfDGFA, 24 h incubation with gametocytes before induction, exflagellation readout, read-out: Male IC50; for HitlevelM: number of replicates with >50% inhibition in the male readout. The series is classed as cell-based, Plasmodium falciparum NF54. The method, boiled down: (§1)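 Male and female gamete formation were quantified by microscopy image analysis following 24 h incubation of mature NF54 gametocytes with compound and activation at 28°C with xanthurenic acid.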

The subject of series [2] is P. falciparum female gametocytes. In words: P. falciparum Dual Gamete Formation Assay (PfDGFA), female readout (Pfs25-positive female gametes). The series is classed as cell-based, Plasmodium falciparum NF54. The settings on record: for Selectivity ratio F: HepG2 Tox50 versus female IC50; for Average inhibition female (%) / % inhibition female (individual replicates) R1 / % inhibition female (individual replicates) R3 / % inhibition female (individual replicates) R4 / inhibition at 2 µM: 24h preincubation with gametocytes; for HitlevelF: number of replicates with >50% inhibition in the female readout; for IC50: PfDGFA, 24 h incubation with gametocytes before induction, female gamete readout, read-out: Female IC50. The method, boiled down:
as §1

A further series deals with HepG2 cells. Briefly: HepG2 cytotoxicity counter-screen. The settings on record: cytotoxic activity against HepG2 cells.
The mark [3] stands for this setting: PfDGFA at 2µM, average of replicates.
Where [4] appears, read: Plasmodium falciparum, 2µM, average of replicates, read-out: Average inhibition male (%).
[5] abbreviates: Plasmodium falciparum, 2µM, replicate R1, read-out: % inhibition male (individual replicates) R1.
Setting [6] is: Plasmodium falciparum, 2µM, replicate R2, read-out: % inhibition male (individual replicates) R2.
The mark [7] stands for this setting: Plasmodium falciparum, 2µM, replicate R4, read-out: % inhibition male (individual replicates) R4.
The mark [8] stands for this setting: Plasmodium falciparum, 2µM, average of replicates, read-out: Average inhibition female (%).
The mark [9] stands for this setting: Plasmodium falciparum, 2µM, replicate R1, read-out: % inhibition female (individual replicates) R1.
The mark [10] stands for this setting: Plasmodium falciparum, 2µM, replicate R2, read-out: % inhibition female (individual replicates) R2.
Where [11] appears, read: Plasmodium falciparum, 2µM, replicate R3, read-out: % inhibition female (individual replicates) R3.
[12] abbreviates: Plasmodium falciparum, 2µM, replicate R4, read-out: % inhibition female (individual replicates) R4.
The mark [13] stands for this setting: Plasmodium falciparum, PfDGFA at 2µM, average of replicates, read-out: Average inhibition male (%).
Where [14] appears, read: Plasmodium falciparum, PfDGFA at 2µM, replicate R1, read-out: % inhibition male (individual replicates) R1.
Where [15] appears, read: Plasmodium falciparum, PfDGFA at 2µM, replicate R2, read-out: % inhibition male (individual replicates) R2.
The mark [16] stands for this setting: Plasmodium falciparum, PfDGFA at 2µM, replicate R3, read-out: % inhibition male (individual replicates) R3.
Where [17] appears, read: Plasmodium falciparum, PfDGFA at 2µM, replicate R4, read-out: % inhibition male (individual replicates) R4.
Setting [18] is: Plasmodium falciparum, PfDGFA at 2µM, average of replicates, read-out: Average inhibition female (%).
Setting [19] is: Plasmodium falciparum, PfDGFA at 2µM, replicate R1, read-out: % inhibition female (individual replicates) R1.
The mark [20] stands for this setting: Plasmodium falciparum, PfDGFA at 2µM, replicate R2, read-out: % inhibition female (individual replicates) R2.
Setting [21] is: Plasmodium falciparum, PfDGFA at 2µM, replicate R3, read-out: % inhibition female (individual replicates) R3.
The mark [22] stands for this setting: Plasmodium falciparum, PfDGFA at 2µM, replicate R4, read-out: % inhibition female (individual replicates) R4.

Read-outs that look alike come from different tables or passages of the source.

For `CC(C#N)Cc1ccc(-c2cnc(N)c3cc(-c4ccnc(N)n4)ccc23)cc1` (stereo not drawn) [TCMDC-134547], in series [1], the “Selectivity Ratio M” value was 7.45 and the IC50 was 0.32 µM. Further, the “Average inhibition male (%)” value in series [1] (setting [3]) is 85.1%. Further, the “% inhibition male (individual replicates) R1” value in series [1] (PfDGFA at 2µM, replicate R1) came to 91.7%. In addition, the “% inhibition male (individual replicates) R3” value in series [1] (PfDGFA at 2µM, replicate R3) was found to be 80.2%. The “% inhibition male (individual replicates) R4” value in series [1] (PfDGFA at 2µM, replicate R4) is 74.9%. In series [1] (2µM), this compound came in with a HitlevelM of 4. For the same compound, the “Selectivity ratio F” value in series [2] came to 0.24. Besides, the “Average inhibition female (%)” value in series [2] (setting [3]) worked out at 0.03%. For the same compound, the “% inhibition female (individual replicates) R1” value in series [2] (PfDGFA at 2µM, replicate R1) is 9.4%. The “% inhibition female (individual replicates) R3” value in series [2] (PfDGFA at 2µM, replicate R3) is recorded as -8.0%. Besides, in series [2] (PfDGFA at 2µM, replicate R4), the “% inhibition female (individual replicates) R4” value was found to be 0.7%. In addition, the HitlevelF in series [2] (2µM) is given as 0. This compound yielded a Tox50 in the series on HepG2 cells of 2.39 µM.

`COc1cccc(OC)c1CN1CCC(N(C)CCCCCCCCCN2CCC(OC(=O)Nc3ccccc3-c3ccccc3)CC2)CC1` [TCMDC-134690]: the “Average inhibition male (%)” value in series [1] (2µM, average of replicates) came to 94.5%. Besides, the “% inhibition male (individual replicates) R1” value in series [1] (2µM, replicate R1) came out at 97.5%. Moreover, the “% inhibition male (individual replicates) R3” value in series [1] (2µM, replicate R3) is on record as 83.2%. Also, the “% inhibition male (individual replicates) R4” value in series [1] (2µM, replicate R4) is listed as 100.9%. Further, in series [1], the “Selectivity Ratio M” value is recorded as 1.95 and the IC50 stood at 1.56 µM. For the same compound, the “Average inhibition female (%)” value in series [2] (2µM, average of replicates) came out at 49.9%. Further, the “% inhibition female (individual replicates) R1” value in series [2] (2µM, replicate R1) was 26.2%. The “% inhibition female (individual replicates) R3” value in series [2] (2µM, replicate R3) is 20.7%. Also, the “% inhibition female (individual replicates) R4” value in series [2] (2µM, replicate R4) is on record as 73.0%. Further, in series [2], the “Selectivity ratio F” value worked out at 0.8 and the IC50 is 3.8 µM. Besides, the Tox50 in the series on HepG2 cells came to 3.03 µM.

For the compound `Cc1cccc(Nc2nc(N[C@@H]3CCCNC3)nc3cc[nH]c(=O)c23)c1.O=C(O)C(F)(F)F` [TCMDC-134835], the “Selectivity Ratio M” value in series [1] amounted to 21.63. The inhibition at 2 µM in series [1] (setting [4]) was 97.3%; in series [1] (setting [5]) it was 96.8%; in series [1] (setting [6]) it was 100%; in series [1] (setting [7]), 94.9%; in series [2] (setting [8]), -0.142%; in series [2] (setting [9]), 6.3%. Besides, the inhibition at 2 µM in series [2] (setting [10]) was 4.6%; in series [2] (setting [11]) it was -8.3%; in series [2] (setting [12]), -3.2%. For the same compound, the IC50 was 0.21 µM in series [1] (Plasmodium falciparum) and 7.69 µM in series [2] (Plasmodium falciparum). In series [2], the “Selectivity ratio F” value is 0.58. For the same compound, in the series with HepG2 cells, the Tox50 worked out at 4.45 µM.

With `Cc1cccc(Nc2nc(NCCCCN)nc3cc[nH]c(=O)c23)c1.O=C(O)C(F)(F)F` [TCMDC-134946], the “Selectivity Ratio M” value in series [1] was 75.16. Also, the inhibition at 2 µM in series [1] (setting [13]) amounted to 89.5%; in series [1] (setting [14]), 94.1%; in series [1] (setting [15]), 93.5%; in series [1] (setting [16]) it was 87.3%; in series [1] (setting [17]) it was 82.9%; in series [2] (setting [18]) it was 9%. For the same compound, the inhibition at 2 µM in series [2] (setting [19]) is 6.6%; in series [2] (setting [20]), 23%; in series [2] (setting [21]) it was 13.1%; in series [2] (setting [22]) it was -6.7%. Besides, the IC50 is 0.38 µM in series [1] (Plasmodium falciparum) and > 10 µM in series [2] (Plasmodium falciparum). For the same compound, the HitlevelM in series [1] (2µM) came to 4. Moreover, in series [2], the “Selectivity ratio F” value worked out at 2.87. The compound further registered a HitlevelF in series [2] (2µM) of 0. In the series on HepG2 cells, the Tox50 is 28.66 µM.

For `O=C(O)C(F)(F)F.O=c1[nH]ccc2nc(N[C@@H]3CCCNC3)nc(Nc3ccc(S(=O)(=O)N4CCOCC4)cc3)c12` [TCMDC-135038], in series [1], the “Selectivity Ratio M” value is recorded as 342.32. Also, the inhibition at 2 µM in series [1] (setting [4]) was determined as 97.4%; in series [1] (setting [5]) it was 93.1%; in series [1] (setting [6]), 99.1%; in series [1] (Plasmodium falciparum, 2µM, replicate R3, read-out: % inhibition male (individual replicates) R3), 99.2%; in series [1] (setting [7]), 98.2%; in series [2] (setting [8]) it was 14.1%. Also, the inhibition at 2 µM amounted to 2.2% in series [2] (setting [9]), 10.6% in series [2] (setting [10]), 4.3% in series [2] (setting [11]) and 39.1% in series [2] (setting [12]). For the same compound, the IC50 in series [1] (Plasmodium falciparum) was found to be 0.06 µM; in series [2] (Plasmodium falciparum) it was 8.17 µM. In addition, the “Selectivity ratio F” value in series [2] was 2.68. This compound returned a Tox50 in the series with HepG2 cells of 21.89 µM.

`O=C(O)C(F)(F)F.O=c1[nH]ccc2nc(N[C@@H]3CCNC3)nc(Nc3cc(Cl)cc(Cl)c3)c12` [TCMDC-135052]: the “Average inhibition male (%)” value in series [1] (2µM, average of replicates) is 90.0%. In series [1] (2µM, replicate R1), the “% inhibition male (individual replicates) R1” value turned out to be 96.4%. For the same compound, in series [1] (2µM, replicate R3), the “% inhibition male (individual replicates) R3” value is reported as 98.4%. In addition, the “% inhibition male (individual replicates) R4” value in series [1] (2µM, replicate R4) is on record as 88.5%. In series [1], the “Selectivity Ratio M” value is on record as 4.82 and the IC50 amounted to 1.53 µM. In series [2] (2µM, average of replicates), the “Average inhibition female (%)” value is given as 61.3%. The “% inhibition female (individual replicates) R1” value in series [2] (2µM, replicate R1) is 75.7%. Further, the “% inhibition female (individual replicates) R3” value in series [2] (2µM, replicate R3) came to 60.7%. Besides, in series [2] (2µM, replicate R4), the “% inhibition female (individual replicates) R4” value was 86.1%. Moreover, in series [2], the “Selectivity ratio F” value stood at 1.49 and the IC50 was found to be 4.94 µM. The same compound returned a Tox50 in the series with HepG2 cells of 7.37 µM.

Consider `COCCN(C)CCCOc1cc2c(cc1OC)ncn2-c1cc(OCc2ccccc2C(F)(F)F)c(C(N)=O)s1.Cl` [TCMDC-135214], for which the “Selectivity Ratio M” value in series [1] stood at 22.02. Moreover, the inhibition at 2 µM turned out to be 64.6% in series [1] (setting [13]); 90.7% in series [1] (setting [14]); 80.9% in series [1] (setting [15]); 65.9% in series [1] (setting [16]); 20.9% in series [1] (setting [17]); 20.2% in series [2] (setting [18]). Further, the inhibition at 2 µM amounted to 22.9% in series [2] (setting [19]), 10% in series [2] (setting [20]), 11% in series [2] (setting [21]) and 36.6% in series [2] (setting [22]). For the same compound, the IC50 in series [1] (Plasmodium falciparum) was 0.62 µM; in series [2] (Plasmodium falciparum), > 10 µM. This compound also registered a HitlevelM in series [1] (2µM) of 3. Besides, the “Selectivity ratio F” value in series [2] worked out at 1.36. Also, the HitlevelF in series [2] (2µM) was found to be 0. Besides, in the series with HepG2 cells, the Tox50 was 13.65 µM.

Turning to `COc1ccc2nc(-c3cc(-c4ccc(NC(=O)C(C)C)cc4)cnc3N)[nH]c2c1` [TCMDC-135322], the “Selectivity Ratio M” value in series [1] was 19.53. Also, the inhibition at 2 µM in series [1] (setting [13]) is 72%; in series [1] (setting [14]), 76.6%; in series [1] (setting [15]), 80.3%; in series [1] (setting [16]), 78.9%; in series [1] (setting [17]), 52.3%; in series [2] (setting [18]), -9%. Besides, the inhibition at 2 µM is -9.8% in series [2] (setting [19]), -5.2% in series [2] (setting [20]), -4.1% in series [2] (setting [21]) and -17% in series [2] (setting [22]). Also, the half-maximal inhibitory concentration (IC50) is 0.43 µM in series [1] (Plasmodium falciparum) and > 10 µM in series [2] (Plasmodium falciparum). This compound also showed a HitlevelM in series [1] (2µM) of 4. Besides, the “Selectivity ratio F” value in series [2] came out at 0.84. In addition, the HitlevelF in series [2] (2µM) stood at 0. The Tox50 with HepG2 cells was 8.38 µM.

Broadly, the IC50 is the concentration that gives 50% inhibition. In general, inhibition refers to the relative decrease from the control value, in per cent.

The values are drawn from paper PMC10584170, “Machine learning-based phenotypic imaging to characterise the targetable biology of Plasmodium falciparum male gametocytes for the development of transmission-blocking antimalarials” (PLOS Pathogens, 2023).
